Data on three compounds can be found in patent publication US20100190778A1, “3,4-DIHYDROBENZO[1,2,3]THIADIAZINE-1,1-DIOXIDE DERIVATIVES, PROCESS FOR PREPARATION THEREOF, MEDICAMENTS CONTAINING SAID DERIVATIVES AND THEIR USE” (EGIS GYOGYSZERGYAR NYILVANOSAN MUKODO RESZVENTARSASAG, priority 2006, published 2010).

One series concerns male Sprague-Dawley rats. The series is described as follows: elevated maze test in the rat (anxiolytic effect). The class given is in vivo. The note with it: per os, 60-min pretreatment, 5-min measurement, MED regarding time spent in the open arms and number of entries into the open arms. As for the experimental part:
Pharmacological activity of the compounds of the general Formula (I) has been evaluated in elevated maze test in the rat.
The tests were carried out according to the method of S. Fellow and coworkers (J. Neurosci. Methods. 1985, 14, 149-167). During the test, a wooden-floor cross elevated by 50 cm from the ground was used. The length and the width of the arms of the cross were 100 and 15 cm, respectively. Two opposite arms of the cross are fitted at the ends and both sides with black plexiglass wall of 40 cm height (closed arms). The central section of the cross measuring 15 by 15 cm is open. The other two opposite arms of the cross are not provided with walls (open arms).
The tests were carried out in male Sprague-Dawley rats weighing 200 to 220 g. After the 60-min pretreatment time (per os treatment), animals were placed in the center of the maze. During the 5-min measurement time, four variables were recorded: the time spent in the open arms; the time spent in the closed arms; the number of entries into the open arms; the number of entries into the closed arms.
Animals normally avoid the open and light parts of the maze, thereby spending little time therein only. The anxiolytic effect of the compounds of the general Formula (I) is indicated by the increase in the time spent (in seconds) in the open arms and/or by the increase in the number of the entries into the open compartments of the maze. The minimum effective dose (MED) was determined for each tested compounds regarding the time spent in the open arms and the number of entries into the open arms. During the test, the known anxiolytic compound I-methyl-5-phenyl-7-chloro-1,3-dihydro-2H-1,4-benzodiazepin-2-one (INN: diazepam) of the Formula (IV)
was used. Treatment of the animals was carried out orally with the doses 0.1, 0.3, 1.0, 3.0 for diazepam and 0.01, 0.1, 1.0 mg/kg for the compounds of the general Formula (I).

By melting point is commonly meant the temperature of the solid-liquid transition.

For the compound `Cc1cc(Cl)c(Cl)c2c1C(C)NNS2(=O)=O` (stereo not drawn) [Example 5, 7,8-Dichloro-4,5-dimethyl-3,4-dihydrobenzo[1,2,3]thiadiazine-1,1-dioxide], the melting point lay in the range of 197 to 199 °C. Besides, the “MED (minimum effective dose), anxiolytic effect in elevated maze test” value in the series with male Sprague-Dawley rats is 0.01 mg/kg p.o.
In the same order, the values of `CC1NN(C)S(=O)(=O)c2c1ccc(Cl)c2Cl` (stereo not drawn) [Example 16, 7,8-Dichloro-2,4-dimethyl-3,4-dihydrobenzo[1,2,3]thiadiazine-1,1-dioxide] are 134 to 135 °C and 0.01 mg/kg p.o.
Take `CN1NCc2ccc(Cl)c(Cl)c2S1(=O)=O` [Example 20, 7,8-Dichloro-2-methyl-3,4-dihydrobenzo[1,2,3]thiadiazine-1,1-dioxide]: the melting point is 124 to 125 °C. In addition, the “MED (minimum effective dose), anxiolytic effect in elevated maze test” value in the series on male Sprague-Dawley rats was determined as 0.01 mg/kg p.o.
